Test results from BindingDB's records for doi:10.1021/acschembio.5b01047 (National Institutes of Health, 2016).
Numbering of substitutions follows the chain as printed.

Columns and labels:
Settings in all cases: pH 7.5
[1] = target: Tyrosyl-DNA phosphodiesterase 2 [E242G,S244A,Q278R,I281T,K282R,R316G,P318T,Y321C] (Mus musculus, UniProt Q9JJX7, E242G/I281T/K282R/P318T/Q278R/R316G/S244A/Y321C); assay: Recombinant TDP2 Assay
Procedure: (§1) TDP2 reactions were carried out as described previously23 with the following modifications.

[2] = target: T1, Tyrosyl-DNA phosphodiesterase 2 [E242G,S244A,Q278R,I281T,K282R,R316G,P318T,Y321CH323L] (Mus musculus, UniProt Q9JJX7, E242G/I281T/K282R/P318T/Q278R/R316G/S244A/Y321CH323L); assay: Recombinant TDP2 Assay
T1 sequence (Q9JJX7 whole entry): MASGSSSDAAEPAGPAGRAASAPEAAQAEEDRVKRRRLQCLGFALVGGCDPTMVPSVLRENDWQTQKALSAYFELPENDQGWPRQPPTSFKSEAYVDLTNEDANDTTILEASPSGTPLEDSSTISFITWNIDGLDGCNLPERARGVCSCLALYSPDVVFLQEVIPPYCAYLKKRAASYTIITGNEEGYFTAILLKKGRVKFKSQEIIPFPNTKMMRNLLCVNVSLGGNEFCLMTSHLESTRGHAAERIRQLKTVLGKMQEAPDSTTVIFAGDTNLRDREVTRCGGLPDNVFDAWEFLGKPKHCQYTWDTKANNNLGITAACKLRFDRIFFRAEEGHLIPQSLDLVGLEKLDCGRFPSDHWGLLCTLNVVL
Procedure: as §1

[3] = target: T2, Tyrosyl-DNA phosphodiesterase 2 (Mus musculus, UniProt Q9JJX7); assay: Recombinant TDP2 Assay
T2 sequence (Q9JJX7 whole entry): T1 sequence (Q9JJX7 whole entry) with G242E, A244S, R278Q, T281I, R282K, G316R, T318P, C321Y, L323H
Procedure: as §1

[4] = target: T3, Tyrosyl-DNA phosphodiesterase 2 (Homo sapiens, UniProt O95551); assay: Recombinant TDP2 Assay
T3 sequence (O95551 whole entry): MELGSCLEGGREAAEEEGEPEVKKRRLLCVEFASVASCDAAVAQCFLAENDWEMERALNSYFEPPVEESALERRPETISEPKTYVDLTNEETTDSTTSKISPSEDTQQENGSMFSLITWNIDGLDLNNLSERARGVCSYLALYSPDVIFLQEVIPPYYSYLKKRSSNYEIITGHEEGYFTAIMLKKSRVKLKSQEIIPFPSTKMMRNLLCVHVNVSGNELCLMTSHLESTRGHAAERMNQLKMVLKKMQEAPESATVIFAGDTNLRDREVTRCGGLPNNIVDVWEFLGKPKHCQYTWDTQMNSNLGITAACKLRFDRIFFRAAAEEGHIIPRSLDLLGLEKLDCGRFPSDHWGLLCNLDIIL
Procedure: as §1

[5] = target: T3, Tyrosyl-DNA phosphodiesterase 2; assay: TDP2 Assays with Whole Cell Extracts
Procedure: Cell pellets were then resuspended in 100 uL of CelLytic M cell lysis reagent (SIGMA-Aldrich C2978). After 15 min on ice, lysates were centrifuged at 12 000g for 10 min, and supernatants were transferred to a new tube. Protein concentrations were determined using a Nanodrop spectrophotometer (Invitrogen), and whole cell extracts were stored at -80 °C. […] Reactions were terminated and samples analyzed.

Sequence of Tyrosyl-DNA phosphodiesterase 2 [E242G,S244A,Q278R,I281T,K282R,R316G,P318T,Y321C] (Q9JJX7 whole entry E242G/S244A/Q278R/I281T/K282R/R316G/P318T/Y321C): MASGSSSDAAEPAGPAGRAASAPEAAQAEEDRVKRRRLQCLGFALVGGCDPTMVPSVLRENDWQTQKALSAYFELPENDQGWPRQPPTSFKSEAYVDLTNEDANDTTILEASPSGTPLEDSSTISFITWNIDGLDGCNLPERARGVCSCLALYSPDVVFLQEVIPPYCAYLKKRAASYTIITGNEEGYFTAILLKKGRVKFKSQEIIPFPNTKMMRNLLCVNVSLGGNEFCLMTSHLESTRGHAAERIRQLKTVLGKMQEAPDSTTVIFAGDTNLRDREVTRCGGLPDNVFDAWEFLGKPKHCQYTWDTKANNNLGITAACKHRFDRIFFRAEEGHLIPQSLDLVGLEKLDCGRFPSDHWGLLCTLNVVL

| Compound | IC50 [1] [µM] | IC50 [2] [µM] | IC50 [3] [µM] | IC50 [4] [µM] | IC50 [5] [µM] |
| --- | --- | --- | --- | --- | --- |
| N#Cc1ccc2cc3c(=O)[nH]c(=O)nc-3n(-c3ccc(O)cc3)c2c1 | 1.1 | 0.17 | > 111 |  |  |
| O=c1nc2n(-c3ccc(O)cc3)c3cc(Cl)ccc3cc-2c(=O)[nH]1 | 35 | 4 | > 111 | 3.9 | 2.3 |
